“Also recorded” adds a separate entry of the source.

As a reminder, the melting point is the temperature of the solid-liquid transition.

The subject of series [1] is renal carcinoma cell lines (ACHN, SN12C, Caki-1, TK-10, UO-31). Nature of the series: Sensitization of renal carcinoma cells to TRAIL apoptosis, percentage decrease in cell number. The series is classed as cell-based. Particulars: for percentage decrease in cell number, agent alone: absence of TRAIL, FIGS. 13B-17B, 13C-17C. An excerpt:
(§1) This example provides a comparison of the activities of compound 1 with the Smac mimetics birinapant, GDC-0152, and LCL-161 and with the Bcl-2 antagonists ABT-199 and ABT-737 for sensitization of renal carcinoma and melanoma cells to TRAIL apoptosis.
(§2) The results for compound 1 are shown graphically in FIGS. 13A-22A. The results for Smac mimetics birinapant, GDC-0152, and LCL-161 are shown graphically in FIGS. 13B-22B. The results for Bcl-2 antagonists ART-199 and ABT-737 are shown graphically in FIGS. 13C-22C, FIGS. 13A-22A, 13B-22B, and 13C-22C depict the percentage decrease in cell number as a function of concentration. For FIGS. 13B-22B and 13C-22C, the dose response curve was obtained for one of the listed agents.

Series [2] concerns melanoma cells (M14, SK-MEL-28, UACC-62, SK-MEL-5, MALME-3M). Nature of the series: Sensitization of melanoma cells to TRAIL apoptosis, percentage decrease in cell number. The series is classed as cell-based. Particulars: for percentage decrease in cell number, agent alone: absence of TRAIL, FIGS. 18B-22B, 18C-22C.
Text: as §1, §2

The subject of series [3] is caspase-8. Nature of the series: Western blot of caspase-8 activation in ACHN cells treated with compound, with or without poly IC. The format is cell-based. The following applies: compound 125 nM-1 μM overnight, then 10 ug/ml polyIC for 3 hours. The procedure: (§3) ACHN cells were grown in RPMI (RPMI, 5% FBS, Pen-strep, NEAA, HEPES, Glutamax, Sodium Pyruvate, 2ME), 2×10^6 cells/well were plated in 6 well plates and grown overnight, on day 2 compound 9 or compound 1 were added, including duplicate plates and incubated overnight. On day 3 either media or 10 ug/ml polyIC was added for 3 hours. Cells were lysed in RIPA buffer (30 mM Tris-HCL pH 7.5, 150 mM NaCl, 10% glycerol, 1% Triton X-100) supplemented with Pierce Halt Protease and Phosphatase Inhibitor and 40 μM ZVAD, the RIPA buffer also contained Pierce Universal Nuclease. Protein concentrations were measured using the Pierce BCA Protein Assay (Thermo Fisher Scientific, Waltham, Mass.), Twenty micrograms of each sample was run on a Bolt Gel (Thermo Fisher Scientific), transferred to a PVDF membrane using the BioRad Trans-Blot Turbo Transfer System (BioRad, Hercules, Calif.), briefly placed in Methanol, dried, rehydrated, and blocked in Pierce Start Block buffer. […]

Series [4] relates to SK MEL28 melanoma cells. Nature of the series: Effect of bafilomycin on sensitization to poly IC, MTS cell viability. The series is classed as cell-based, human. Particulars: 50 nM bafilomycin A, poly IC 36-48 h. The procedure: (§4) For all experiments, cells (ACHN (renal carcinoma), M14, SK MEL28, and Malme (human melanoma lines)) were plated at a concentration of 5000 cells/well overnight. All treatments were carried out the following day.
To inhibit TLR 3 signaling, cells were treated with compound 9, compound 1, or compound 10 for 4 hours followed by addition of 50 nM of Balfilomycin A or DMSO for 2.5 h. Subsequently poly IC was added for 36-48 h and cell viability was assessed by addition of MTS during the last four hours of Poly IC treatment. The results for compounds 9, 1, and 10 are depicted in FIG. 6.

Series [5] deals with SKMEL28 melanoma cells. Put plainly: Effect of pan caspase inhibitor ZVAD-FMK on growth inhibition by poly IC plus compound, MTS. The format is cell-based, human. The following applies: compound 1000 nM for 16-18 h, ZVAD-FMK 40 μM for 2 h, poly IC 20-24 h. The procedure:
To assess the effects of pan caspase inhibitor ZVAD, SKMEL28 melanoma cells were treated with compounds 9 and 1 for 16-18 h. Subsequently, ZVAD-FMK (40 μM) or DMSO was added for 2 h followed by 20-24 h incubation in the presence or absence of poly IC. Cell viability was assessed by addition of MTS during the last four hours of poly IC treatment.
The growth inhibition as a function of poly IC concentration at 1000 nM concentrations of compounds 9 and 1 was determined, and the results shown in FIGS. 10A and 10B, respectively.

Series [6] has as its system cFLIP. Put plainly: Western blot of cFLIP levels in ACHN cells treated with compound, with or without poly IC. The format is cell-based. Particulars: compound 125 nM-1 μM overnight, FIGS. 5A and 5B. The procedure:
as §3

Series [7] relates to human M14 melanoma. Put plainly: Xenograft model of human M14 melanoma, intratumoral compound. The series is classed as in vivo, athymic nude mice. The following applies: 20 mg/Kg, once per week for four weeks. The procedure: Female nude athymic mice were obtained from Charles River Laboratory. All mice were kept under specific pathogen-free conditions with water and food given ad libitum. All experiments with mice were performed in compliance with the principles and procedures outlined in the National Institutes of Health Guide for the Care and Use of Animals and were approved by the National Cancer Institute at Frederick Animal Care and Use Committee.
For in vivo treatments with compounds 9 and 1, compound 9 and compound 1 stock solutions (0.5M and 0.25M in DMSO respectively) were diluted in 33% Trappsol and DMSO at a ratio of 7:1 and administered intratumorally or at the base of tumor in a volume of 20 ul at a dose of 20 mg/Kg of body weight. […]
Mice (nude athymic, female, 6-8-week old, n=5), were implanted subcutaneously with 0.2 ml of M14 melanoma cells (1×10^6/mouse) into the right flank. […] The appearance and growth of tumors were monitored twice every week. The greatest longitudinal diameter (length) and the greatest transverse diameter (width) of a palpable tumor were measured to the nearest 0.1 mm using a caliper. Tumor volume (mm^3) was calculated by the ellipsoidal formula Tumor volume=[…]. […]

Series [8] concerns SK MEL28 melanoma cells. Put plainly: Titration of sensitization to TRAIL, MTS cell viability. The format is cell-based, human. The following applies: compound 0.97 nM-2000 nM for 3 or 24 h, then 10 ng/ml TRAIL for 24 h. The procedure:
as §4
(§5) For titration experiments in the presence or absence of TRAIL, cells were treated with various doses of compound 8 (0.97 nM-2000 nM) for 3 or 24 h followed by 10 ng/ml of recombinant TRAIL for 24 h. Cell viability was assessed by addition of MTS during the last four hours of TRAIL treatment. The results with SK MEL28, M14, and Malme cells are depicted in FIGS. 7A-7C, respectively.

The test system of series [9] is Malme 3M melanoma cells. Described as above. The series is classed as cell-based, human. The following applies: Malme (Malme 3M); compound 0.97 nM-2000 nM for 3 or 24 h, then 10 ng/ml TRAIL for 24 h. The procedure:
as §4, §5
(§6) Titration experiments were conducted as described in Example 5.

Series [10] concerns M14 melanoma cells. The description is as above. The series is classed as cell-based, human. Particulars: compound 0.97 nM-2000 nM for 3 or 24 h, then 10 ng/ml TRAIL for 24 h. The procedure: as §4, §5, §6

With `CC1=C(C)C(=O)OC([C@](C)(O)[C@]2(O)CC[C@@]3(O)C4CC=C5C(=O)C=CC(=O)[C@]5(C)C4CC[C@]23C)C1` (stereo partly shown), the melting point lay in the range of 176 to 178 °C.

For `CC1(C)CCC(CN2CCN(c3ccc(C(=O)NS(=O)(=O)c4ccc(NCC5CCOCC5)c([N+](=O)[O-])c4)c(Oc4cnc5[nH]ccc5c4)c3)CC2)=C(c2ccc(Cl)cc2)C1` [ABT-199], the “percentage decrease in cell number, agent alone” value (shortened to “percentage decrease”) in series [1] and in [2] was “little to no response due to concentration” throughout.

Turning to `CN(C)CC[C@H](CSc1ccccc1)Nc1ccc(S(=O)(=O)NC(=O)c2ccc(N3CCN(Cc4ccccc4-c4ccc(Cl)cc4)CC3)cc2)cc1[N+](=O)[O-]` [ABT-737], the “percentage decrease” value in series [1] and in series [2] was “little to no response due to concentration” in each case.

As for `CN[C@@H](C)C(=O)N[C@H](C(=O)N1CCC[C@H]1C(=O)Nc1snnc1-c1ccccc1)C1CCCCC1` [GDC-0152], the “percentage decrease” value in series [1] and in [2] was “little to no response due to concentration” throughout.

As for `CN[C@@H](C)C(=O)N[C@H](C(=O)N1CCC[C@H]1c1nc(C(=O)c2ccc(F)cc2)cs1)C1CCCCC1` [LCL-161], the “percentage decrease” value in series [1] and in series [2] was “little to no response due to concentration” in each case.

Take `CC[C@H](NC(=O)[C@H](C)NC)C(=O)N1C[C@@H](O)C[C@H]1Cc1c(-c2[nH]c3cc(F)ccc3c2C[C@@H]2C[C@H](O)CN2C(=O)[C@H](CC)NC(=O)[C@H](C)NC)[nH]c2cc(F)ccc12` [birinapant]: the “percentage decrease” value in [1] and in series [2] was “little to no response due to concentration” in each case.

As for `CC(=O)OC[C@]12CC[C@H]3[C@@H](C[C@H]4O[C@]45CC=CC(=O)[C@]35C)[C@]1(O)CC[C@@]2(O)[C@@](C)(O)[C@H]1CC(C)=C(C)C(=O)O1` [compound 1, physachenolide C], the “sensitization to TRAIL apoptosis” value in series [1] (50 ng/mL TRAIL) was “superior sensitizer”; in series [2] (25 ng/mL TRAIL), “significant activity”. The “promoting caspase-8 activation in response to subsequent exposure to poly IC” value in [3] was “more active than compound 9”. In addition, the “apoptosis by the compound and poly IC combination after incubation with bafilomycin-A1” value in [4] is given as “significantly reduced subsequent apoptosis”. The “reduction in cell number by poly IC in combination with compound, in presence of ZVAD-FMK” value in series [5] is given as “completely blocked”. Also, in series [6], the “reducing the levels of cFLIPL+S” value is “more active than compound 9”. Moreover, the “observation at the tumor site accompanying decrease in tumor burden” value in series [7] is “massive tumor destruction and scabbing at the tumor site”. Also, the “tumor growth and volume (tumor burden)” value in series [7] (versus vehicle control, ****P<0.0001, 20 mg/kg) was “significant reduction in tumor growth and volume”.

In the case of “biotinylated derivative of 4β-hydroxywithanolide E [compound 8]”, the “sensitization to apoptosis by TRAIL” value is reported as “sensitized” in [8], “sensitized; also recorded: more potent than compound 1 at lower concentrations” in [9] and “sensitized; also recorded: more potent than compound 1 at lower concentrations” in series [10].
